Assay results from the supplement of paper PMC11061612.

Columns and labels:
[1] = compound: CN(CC[C@H](CSC1=CC=CC=C1)NC2=C(C=C(C=C2)S(=O)(=O)NC(=O)C3=CC=C(C=C3)N4CCC(CC4)[C@H](C5=CC=CC=C5C6=CC=C(C=C6)Cl)O)S(=O)(=O)C(F)(F)F)CCO [AZD4320]; details: max 1 µM
Procedure, shortened: (§1)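 After 24 hours at 37°C and 5% CO2 in 1536-well plates holding 7.5 μl of DMEM/F12 or RPMI with 10% FBS, cancer cell lines were dosed for 72 hours, with final DMSO typically 0.2%. Viability came from CellTiter-Glo 2.0 luminescence, scaled between the means of blank wells and DMSO wells. A non-linear mixed effects model fitted a two-parameter logistic curve to each dose response to give the single-agent IC50.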

[2] = compound: CC1(C)CCC(CN2CCN(c3ccc(C(=O)NS(=O)(=O)c4ccc(NCC5CCOCC5)c([N+](=O)[O-])c4)c(Oc4cnc5[nH]ccc5c4)c3)CC2)=C(c2ccc(Cl)cc2)C1 [Venetoclax]; details: max 1 µM
Procedure, shortened: as §1

[3] = compound: CC1=C(C(=CC=C1)Cl)NC(=O)C2=CN=C(S2)NC3=CC(=NC(=N3)C)N4CCN(CC4)CCO [Dasatinib]; details: max 2 µM
Procedure, shortened: as §1

[4] = compound: Cc1nc(-c2cn3c(n2)-c2ccc(-c4cnn(C(C)(C)C(N)=O)c4)cc2OCC3)n(C(C)C)n1 [Taselisib]; details: max 10 µM
Procedure, shortened: as §1

[5] = compound: COc1cc(Nc2ncc3c(n2)-c2ccc(Cl)cc2C(c2c(F)cccc2OC)=NC3)ccc1C(=O)O [Alisertib]; details: max 10 µM
Procedure, shortened: as §1

[6] = compound: C1CN(CCC1(C(=O)N[C@@H](CCO)C2=CC=C(C=C2)Cl)N)C3=NC=NC4=C3C=CN4 [Capivasertib]; details: max 10 µM
Procedure, shortened: as §1

[7] = compound: NC1(c2ccc(-c3nc4ccn5c(=O)[nH]nc5c4cc3-c3ccccc3)cc2)CCC1 [MK-2206]; details: max 10 µM
Procedure, shortened: as §1

[8] = compound: COc1cccc2c1C(=O)c1c(O)c3c(c(O)c1C2=O)C[C@@](O)(C(=O)CO)C[C@@H]3O[C@H]1C[C@H](N)[C@H](O)[C@H](C)O1 [Doxorubicin]; details: max 1 µM
Procedure, shortened: as §1

[9] = compound: C[C@@H](c1ccc2nccn2c1)n1nnc2ncc(-c3cnn(C)c3)nc21 [Savolitinib]; details: max 1 µM
Procedure, shortened: as §1

[10] = compound: COc1cc2ncnc(Nc3ccc(F)c(Cl)c3)c2cc1OCCCN1CCOCC1 [Gefitinib]; details: max 10 µM
Procedure, shortened: as §1

[11] = compound: C[C@@H](Nc1cc(F)cc(F)c1)c1cc(C(=O)N(C)C)cc2c(=O)cc(N3CCOCC3)oc12 [AZD8186]; details: max 3 µM
Procedure, shortened: as §1

[12] = compound: CC1=CN2[C@@H](C1)C=NC3=CC(=C(C=C3C2=O)OC)OCCCCCOC4=C(C=C5C(=C4)N=C[C@@H]6CC(=CN6C5=O)C)OC [SG3199]; details: max 0.001 µM
Procedure, shortened: as §1

[13] = compound: C[C@@H]1COCCN1C2=NC(=NC(=C2)C3(CC3)[S@](=N)(=O)C)C4=C5C=CNC5=NC=C4 [AZD6738]; details: max 10 µM
Procedure, shortened: as §1

[14] = compound: CC(=O)Nc1cccc(-n2c(=O)n(C3CC3)c(=O)c3c(Nc4ccc(I)cc4F)n(C)c(=O)c(C)c32)c1 [Trametinib]; details: max 1 µM
Procedure, shortened: as §1

[15] = compound: Cc1cc2ncnn2cc1Nc1ncc2c(n1)n(C1CCOCC1)c(=O)n2C [AZD7648]; details: max 10 µM
Procedure, shortened: as §1

[16] = compound: Cc1c2c(nn1C)CSCc1cc(n(C)n1)CSc1cc(c3ccccc3c1)OCCCc1c(C(=O)O)n(C)c3c-2c(Cl)ccc13 [AZD5991]; details: max 1 µM
Procedure, shortened: as §1

[17] = compound: CC(C)n1c(=O)n(C)c2cnc3cc(F)c(-c4ccc(OCCCN5CCCCC5)nc4)cc3c21 [AZD1390]; details: max 0.3 µM
Procedure, shortened: as §1

[18] = compound: C[C@@H](Oc1cc(-c2cnn(C3CCNCC3)c2)cnc1N)c1c(Cl)ccc(F)c1Cl [Crizotinib]; details: max 10 µM
Procedure, shortened: as §1

[19] = compound: COc1nnc2ccc(N3CCC(c4ccc(OCCN5CCN(C)C(=O)[C@H]5C)cc4)CC3)nn12 [AZD5153]; details: max 1 µM
Procedure, shortened: as §1

[20] = compound: C=CCn1c(=O)c2cnc(Nc3ccc(N4CCN(C)CC4)cc3)nc2n1-c1cccc(C(C)(C)O)n1 [AZD1775]; details: max 3 µM
Procedure, shortened: as §1

[21] = compound: CC(=O)c1c(C)c2cnc(Nc3ccc(N4CCNCC4)cn3)nc2n(C2CCCC2)c1=O [Palbociclib]; details: max 10 µM
Procedure, shortened: as §1

[22] = compound: CCc1c2c(nc3ccc(O)cc13)-c1cc3c(c(=O)n1C2)COC(=O)[C@]3(O)CC [SN-38]; details: max 0.3 µM
Procedure, shortened: as §1

[23] = compound: CS(=O)(=O)CCNCc1ccc(-c2ccc3ncnc(Nc4ccc(OCc5cccc(F)c5)c(Cl)c4)c3c2)o1 [Lapatinib]; details: max 10 µM
Procedure, shortened: as §1

[24] = compound: COc1cccc(OCCCN)c1-c1cc(Nc2cnc(C#N)cn2)n[nH]1 [Prexasertib]; details: max 1 µM
Procedure, shortened: as §1

[25] = compound: O=C(c1cc(Cc2n[nH]c(=O)c3ccccc23)ccc1F)N1CCN(C(=O)C2CC2)CC1 [Olaparib]; details: max 10 µM
Procedure, shortened: as §1

[26] = compound: Cn1cnc2c(F)c(Nc3ccc(Br)cc3Cl)c(C(=O)NOCCO)cc21 [Selumetinib]; details: max 10 µM
Procedure, shortened: as §1

[27] = compound: CCN(CCO)CCCOc1ccc2c(Nc3cc(CC(=O)Nc4cccc(F)c4)[nH]n3)ncnc2c1 [AZD2811]; details: max 1 µM
Procedure, shortened: as §1

[28] = compound: CN(C)CCCOc1ccc(-c2ccc3ncc4c(c3c2)n(C2CCOCC2)c(=O)n4C)cn1 [AZD0156]; details: max 3 µM
Procedure, shortened: as §1

Cell Line	IC50, cell viability 72 h [1]	IC50, cell viability 72 h [2]	IC50, cell viability 72 h [3]	IC50, cell viability 72 h [4]	IC50, cell viability 72 h [5]	IC50, cell viability 72 h [6]	IC50, cell viability 72 h [7]	IC50, cell viability 72 h [8]	IC50, cell viability 72 h [9]	IC50, cell viability 72 h [10]	IC50, cell viability 72 h [11]	IC50, cell viability 72 h [12]	IC50, cell viability 72 h [13]	IC50, cell viability 72 h [14]	IC50, cell viability 72 h [15]	IC50, cell viability 72 h [16]	IC50, cell viability 72 h [17]	IC50, cell viability 72 h [18]	IC50, cell viability 72 h [19]	IC50, cell viability 72 h [20]	IC50, cell viability 72 h [21]	IC50, cell viability 72 h [22]	IC50, cell viability 72 h [23]	IC50, cell viability 72 h [24]	IC50, cell viability 72 h [25]	IC50, cell viability 72 h [26]	IC50, cell viability 72 h [27]	IC50, cell viability 72 h [28]
DMS-53 (Small Cell Lung Carcinoma)	174 nM	> 1000 nM	> 2000 nM	> 10000 nM	> 10 µM	> 10 µM	> 10 µM	> 1000 nM	> 1000 nM	> 10 µM	> 3000 nM	> 1 nM	> 10 µM	> 1000 nM	> 10 µM	> 1000 nM	> 300 nM	> 10 µM	> 1000 nM	> 3000 nM	> 10 µM	37 nM	> 10 µM	> 1000 nM	> 10 µM	> 10 µM	> 1000 nM	> 3000 nM
HCC1428 (Breast Carcinoma)	> 1000 nM	> 1000 nM	> 2000 nM	> 10000 nM	> 10 µM	> 10 µM	> 10 µM	> 1000 nM	> 1000 nM	> 10 µM	> 3000 nM	> 1 nM	> 10 µM	> 1000 nM	> 10 µM	67.7 nM	> 300 nM	> 10 µM	483 nM	> 3000 nM	> 10 µM	> 300 nM	> 10 µM	> 1000 nM	> 10 µM	> 10 µM	> 1000 nM	> 3000 nM
RH-41 (Rhabdomyosarcoma)	87 nM	> 1000 nM	> 2000 nM	93.1 nM	3.43 µM	0.314 µM		476 nM	> 1000 nM	> 10 µM	> 3000 nM	> 1 nM	4.12 µM	> 1000 nM	> 10 µM	88.5 nM	> 300 nM	1.98 µM	96.8 nM	729 nM	> 10 µM	57 nM	> 10 µM	23.1 nM	> 10 µM	> 10 µM	> 1000 nM	> 3000 nM
COLO-792 (Melanoma)	788 nM	> 1000 nM	> 2000 nM	1690 nM	> 10 µM	> 10 µM		> 1000 nM	> 1000 nM	> 10 µM	> 3000 nM	> 1 nM	> 10 µM	110 nM	> 10 µM	238 nM	> 300 nM	5.38 µM	512 nM	2290 nM	> 10 µM	> 300 nM	> 10 µM	> 1000 nM	> 10 µM	5.94 µM	> 1000 nM	> 3000 nM
LS-411N (Colorectal Carcinoma)	> 1000 nM	> 1000 nM	> 2000 nM	> 10000 nM	> 10 µM	7.04 µM	> 10 µM	> 1000 nM	> 1000 nM	> 10 µM	> 3000 nM	> 1 nM	4.06 µM	44.7 nM	> 10 µM	> 1000 nM	> 300 nM	> 10 µM	169 nM	412 nM	> 10 µM	> 300 nM	> 10 µM	42.4 nM	> 10 µM	1.34 µM	> 1000 nM	> 3000 nM
NCI-H2228 (Lung Adenocarcinoma)	> 1000 nM	> 1000 nM	> 2000 nM	2010 nM	8.94 µM	> 10 µM		557 nM	> 1000 nM	> 10 µM	> 3000 nM	> 1 nM	> 10 µM	955 nM	> 10 µM	> 1000 nM	> 300 nM	5.48 µM	> 1000 nM	2870 nM	> 10 µM	82.4 nM	> 10 µM	182 nM	> 10 µM	> 10 µM	> 1000 nM	> 3000 nM
JVM-2 (B-Cell Non-Hodgkin's Lymphoma)	> 1000 nM	> 1000 nM	44.6 nM	307 nM	0.203 µM	1.28 µM		48.1 nM	> 1000 nM	> 10 µM	976 nM	> 1 nM	3.23 µM	> 1000 nM	> 10 µM	> 1000 nM	> 300 nM	5.65 µM	53.1 nM	98.3 nM	1.54 µM	3.86 nM	9.87 µM	10.8 nM	> 10 µM	> 10 µM	238 nM	> 3000 nM
